Read-outs that look alike come from different tables or passages of the source.
How the values were obtained:
[1] = Pharmacokinetics in OVX rats; assay type: in vivo; details: female, Crl:CD(SD), rat, plasma, iv
[2] = Pharmacokinetics in OVX rats; assay type: in vivo; details: female, Crl:CD(SD), rat, plasma
Procedure: OVX was carried out in 32-week-old female Crl:CD (SD) rats (Charles River Laboratories). Twelve weeks after surgery, lumbar vertebral BMD (L3–L5) was measured in vivo by dual-energy X-ray absorptiometry (DXA) using a DCS-600EX-IIIR bone densitometer (Hitachi Aloka Medical), and the rats were divided into five groups, each with a similar mean value of BMD and body weight. Sample sizes were determined based on previous experiments with hPTHs and a published study with ibandronate and eldecalcitriol in our laboratories[42] (n=7–10). Then, OVX rats were treated once daily intravenously (vehicle or PCO371 at 3 or 10 mg kg^−1) or orally (vehicle or PCO371 at 30 mg kg^−1) or subcutaneously [vehicle or hPTH(1–34) at 0.9 nmol kg^−1] for 12 weeks. Ten to twelve OVX rats were assigned to each dose group. Nine rats were assigned to the sham-operated control group and were treated with vehicle for PCO371. Ten per cent DMSO (Wako Pure Chemical Industries)/10% Kolliphor EL (Sigma-Aldrich) in 10% hydroxypropyl-β-cyclodextrin (HPCD; Nihon Shokuhin Kako)/0.752% glycine (Wako Pure Chemical Industries) buffer was used as vehicle for PCO371, and phosphate-citrate buffer (pH 6.0) was used as vehicle for hPTH(1–34). To label bone-forming surfaces, tetracycline ([…], Nippon Zenyaku Kogyo) was subcutaneously injected on Day 78 and calcein (8 mg kg^−1, Dōjindo Laboratories) was subcutaneously injected on day 83. Under isoflurane anaesthesia, jugular vein blood was collected immediately before and at 1, 2, 6, 10 and 24 h after administration on day 82 to measure plasma concentration of PCO371 or on day 84 to measure serum Ca levels (o-CPC method, Wako Pure Chemical Industries). Urine was collected for 24 h from metabolic cages on days 84–85 to measure urinary collagen type 1 cross-linked C-telopeptide (CTX) by using the RatLaps ELISA System (Immunodiagnostic Systems). Under isoflurane anaesthesia, blood was collected on day 85 from the abdominal aorta to measure serum osteocalcin level by using the Rat Osteocalcin ELISA System (GE Healthcare). The lumbar spine and bilateral femurs were excised after 12 weeks of treatment. The first lumbar vertebra (L1), 3rd to 5th lumbar vertebrae (L3–L5), the right femur, and the right tibia were preserved in 70% ethanol to measure bone histomorphometry and BMD (DCS-600EX; Hitachi Aloka Medical). Measurement of bone histomorphometry was performed by the Ito Bone Histomorphometry Institute (Niigata, Japan). The second lumbar vertebra (L2) was wrapped in saline-soaked gauze and stored at −80 °C until measurement. Ultimate compressive strength (N) of the L2 vertebra was measured by using a mechanical testing machine (TK-252C; Muromachi Kikai).

TPTX rats = assay: Single administration study in TPTX rats; assay type: in vivo, rat; details: TPTX rats, single oral administration
Procedure: TPTX was carried out in 6-week-old female Crl:CD(SD) rats (Charles River Laboratories). Rats with serum Ca levels of <8.0 mg dl^−1 at 5 days after surgery were used for the experiment. The rats were divided into six groups, each with a similar mean value of serum Ca levels and body weight. TPTX rats were treated once orally (vehicle or PCO371 at 1.3, 6.5 or 33 mg kg^−1) or subcutaneously (vehicle or hPTH(1–84) (Chugai Pharmaceutical) at 9 nmol kg^−1). Six TPTX rats were assigned to each dose group. The sample size was determined based on previous experiments and a published study with hPTHs and LA-PTH in our laboratories[24] (n=5–6). Vehicle for PCO371 was the same as in the OVX rat study, and phosphate-citrate buffer (pH 6.0) was used as vehicle for hPTH(1–84). Under isoflurane anaesthesia, jugular vein blood was collected immediately before and at 1, 2, 6, 10 and 24 h after administrations to measure serum Ca (o-CPC method, Wako Pure Chemical Industries) and Pi levels (xanthine oxidase method, Wako Pure Chemical Industries).
In another experiment, the effects of a single treatment with PCO371 or hPTH(1–34) on serum Ca and Pi in TPTX rats (6-week-old) were evaluated at the dose of 3, 9.5 or 30 mg kg^−1 (PCO371, p.o.) or 9 nmol kg^−1 (hPTH(1–34), s.c.) according to the same method as that described above.

For `Cc1cc(N2C(=O)NC(=O)C2(C)C)cc(C)c1CCS(=O)(=O)N1CCC2(CC1)N=C(c1ccc(OC(F)(F)F)cc1)NC2=O` [PCO371, 1-{3,5-dimethyl-4-[2-({4-oxo-2-[4-(trifluoromethoxy)phenyl]-1,3,8-triazaspiro[4.5]dec-1-en-8-yl}sulfonyl)ethyl]phenyl}-5,5-dimethylimidazolidine-2,4-dione], the concentration at 2 min ([1]; i.v. 3 mg kg-1, read-out: C2min (concentration at 2 min after administration)) was 17.5 µg/mL, the concentration at 2 min ([1]; i.v. 10 mg kg-1, read-out: C2min (concentration at 2 min after administration)) was 50.1 µg/mL and the AUC ([2]; iv, i.v. 3 mg kg-1) was 15.5 µg·h/mL. For the same compound, the half-life ([2]; iv, i.v. 3 mg kg-1) was 2.4 ± 0.2 h, the AUC ([2]; iv, i.v. 10 mg kg-1) was 48.7 µg·h/mL and the half-life ([2]; iv, i.v. 10 mg kg-1) was 2.2 ± 0.2 h. It also gave an AUC ([2]; po, p.o. 30 mg kg-1) of 29.5 µg·h/mL, a Cmax ([2]; po, p.o. 30 mg kg-1) of 0.0956 ± 0.0844 µg/mL and a Tmax ([2]; po, p.o. 30 mg kg-1) of 1.4 ± 0.8 h. The half-life ([2]; po, p.o. 30 mg kg-1) was 2.5 ± 0.3 h, the “serum Ca” value (TPTX rats) was “dose-dependently increased” and the “serum Pi” value (TPTX rats) was “decreased”.

From paper PMC5120204, “Identification of an orally active small-molecule PTHR1 agonist for the treatment of hypoparathyroidism” (Nature Communications, 2016)
